Results on 18 molecules are retold here after patent US8420657B2 (Novartis AG, priority 2008, dated 2013).

The target of one assay is T1, GST-JAK2(808-1132) (Homo sapiens, UniProt O60674).
T1 construct: GST-JAK2(808-1132); purchased Invitrogen (Carlsbad, USA) #4288
Briefly: JAK2 kinase assay (Caliper mobility shift, LabChip 3000). The format is biochemical. In outline:
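Recombinant GST-JAK2(808-1132) kinase domain with FITC-labelled JAK3tide peptide substrate and ATP; 60 min at 30 °C, EDTA stop. Substrate/product ratio read by microfluidic mobility shift; compounds at 8 final concentrations, 10 to 0.003 μM.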

Assay [1] relates to JAK2-dependent nuclear translocation of STAT5-GFP in U-2 OS osteosarcoma cells. Briefly: STAT5 nuclear translocation assay (Cellomics), rhEpo stimulated U-2 OS STAT5-GFP cells. Type of assay: cell-based. To be noted: Homo sapiens, U2OS; STAT5 translocation pathway. The source says: The medium-throughput (96-well format) cellular automated fluorescence microscopy Cellomics assay can be routinely used to assess the functional activation of Janus Kinases (JAKs), based on the nuclear translocation of their substrate, Signal Transducer and Activator of Transcription (STAT). Nuclear translocation can be monitored either in HT1080 fibrosarcoma cells stably transfected with STAT1 fused to Green Fluorescence Protein (GFP) or in U-2 OS osteosarcoma cells stably transfected with STAT5 fused to Green Fluorescence Protein (GFP). Stimulation of HT1080 cells with interferon-γ (IFN-γ) results in JAK1/JAK2-dependent nuclear translocation of STAT1-GFP, whereas stimulation of U-2 OS cells with recombinant human erythropoietin (rhEpo) results in JAK2-dependent nuclear translocation of STAT5-GFP, both of which can be quantified using the Cellomics Cyto/NucTrans software package. This assay may be used to provide an assessment of the nuclear-cytoplasmic differential (NCD) of STAT-GFP using Hoechst dye to define the boundaries of the nucleus.
U-2 OS osteosarcoma cells may be obtained from ATCC and can be cultured in standard RPMI medium supplemented with 10% FCS and 2 mM L-glutamine. Cells can be stably transfected with STAT5a-GFP using Lipofectamine following the manufacturers' protocol. 24 hours after transfection the medium can be replaced and selected in 400 μg/ml Geneticin. Subsequently, cells can be stably transfected with EpoR using Lipofectamine following the manufacturers' protocol. 24 hours after transfection the medium can be replaced and cells selected in 100 μg/ml Hygromycin B.
Compounds can be dissolved in DMSO to a final stock concentration of 10 mM and stored as aliquots at 4° C. Compounds may be pre-diluted in 100% DMSO at 10 mM, 3 mM 1 mM, 0.3 mM, 0.1 mM, 0.03 mM, 0.01 mM and 0.003 mM. Subsequently, compounds may be diluted in medium and added in 50 μl to the cells. The final compound concentrations tested may be 10 μM, 3 μM 1 μM, 0.3 μM, 0.1 μM, 0.03 μM, 0.01 μM and 0.003 μM and the final DMSO concentration can be 0.1%.
U-2 OS may be seeded at a cell density of 12,000 cells per well in clear-bottom black 96-well Packard View-Plates™. The following day, medium can be removed and replaced with medium containing either the vehicle (DMSO) or increasing concentrations of test compounds for 30 minutes at 37° C. Cells can then be stimulated for 1 hour by adding 10 μl per well of 50 U/ml rhEpo to obtain 5 U/ml of rhEpo as the final concentration. Following treatments, cells can fixed and processed as described above.
The plates can be read on a Cellomics® ArrayscanII automated fluorescence microscope plate reader equipped with a Mercury-Xenon white light illumination source and a Zeiss Axiovert inverted microscope, using the XF100 dichroic/emission filter cube and matching excitation filters, 10× magnification, and a 0.3 numerical aperture objective. Image acquisition and analysis can be performed using a customized protocol based on the ‘NuclearTranslocation’ Bioapplication. For each well, multiple images (fields) can be acquired until a minimum of 1000 cells are counted using two 2 channels: Channel 1 (Hoechst)=focus+nuclear mask, Channel 2 (GFP)=signal quantification in mask areas as outlined below. Nuclei may be first identified based on the Hoechst staining and a mask generated for each nucleus that then serves as a template to generate a circle (eroded inwards by 1 pixel) and a 3 pixel-wide collar-like ring (off-set outwards by 1 pixel), in which the nuclear and cytoplasmic intensity of GFP, respectively, are quantified in the corresponding channel. High content analysis yields numerous measurements per cell and the GFP intensity differential between the nuclear and the cytoplasmic masks may be chosen as a measure of sub-cellular STAT-GFP relocation. The resulting values may be averaged for all cells in the well to return a single measurement plus standard deviation. […]

T1 sequence (O60674 808-1132): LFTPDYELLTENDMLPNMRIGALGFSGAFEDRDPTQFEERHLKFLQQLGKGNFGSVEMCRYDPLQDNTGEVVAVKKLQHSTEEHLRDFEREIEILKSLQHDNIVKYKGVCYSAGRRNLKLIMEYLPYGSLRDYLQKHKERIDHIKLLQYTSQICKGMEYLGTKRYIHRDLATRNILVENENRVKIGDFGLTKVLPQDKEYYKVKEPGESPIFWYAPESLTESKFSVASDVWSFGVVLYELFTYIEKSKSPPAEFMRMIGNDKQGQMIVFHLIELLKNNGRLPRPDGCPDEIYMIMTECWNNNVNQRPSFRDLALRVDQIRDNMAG

In general, IC50 refers to the concentration that gives 50% inhibition. Turning to `Fc1cc(-n2ccc3cnc(Nc4ccc(CN5CCNCC5)nc4)nc32)cc(F)c1CN1CCOCC1` [Example 486, [7-(3,5-Difluoro-4-morpholin-4-yl methyl-phenyl)-7H-pyrrolo[2,3-d]pyrimidin-2-yl]-(6-piperazin-1-ylmethyl-pyridin-3-yl)-amine], the values for the IC50 (on GST-JAK2(808-1132); in assay [1]) were at most 3 nM and 487 nM, respectively.

Consider `C[C@@H]1CN(c2ccc(Nc3ncc4ccn(-c5cc(F)c(CN6CCOC7(COC7)C6)c(F)c5)c4n3)cn2)C[C@H](C)N1` [Example 360, [6-(cis-3,5-Dimethyl-piperazin-1-yl)-pyridin-3-yl]-{7-[4-(2,5-dioxa-8-aza-spiro[3,5]non-8-ylmethyl)-3,5-difluoro-phenyl]-7H-pyrrolo[2,3-d]pyrimidin-2-yl}-amine], for which the results for the IC50 (at GST-JAK2(808-1132); in assay [1]) were 3.3 nM and 7.2 nM, respectively.

As to `CN1CCN(c2ccc(Nc3ncc4ccn(-c5cc(F)c(CN6CCOCC6)c(F)c5)c4n3)nc2)CC1` [Example 377, [7-(3,5-Difluoro-4-morpholin-4-ylmethyl-phenyl)-7H-pyrrolo[2,3-d]pyrimidin-2-yl]-[5-(4-methyl-piperazin-1-yl)-pyridin-2-yl]-amine], the IC50 at GST-JAK2(808-1132) was 49 nM; in assay [1], over 2600 nM.

Turning to `Fc1cc(-n2ccc3cnc(Nc4ccc(N5CCN(C6CC6)CC5)nc4)nc32)cc(F)c1CN1CCOCC1` [Example 457, [6-(4-Cyclopropyl-piperazin-1-yl)-pyridin-3-yl]-[7-(3,5-difluoro-4-morpholin-4-ylmethyl-phenyl)-7H-pyrrolo[2,3-d]pyrimidin-2-yl]-amine], the values for the IC50 (at GST-JAK2(808-1132); in assay [1]) were at most 3 nM and 21 nM, respectively.

With `COC1CN(Cc2cc(Nc3ncc4ccn(-c5cc(F)c(CN6CCOCC6)c(F)c5)c4n3)ccc2C)C1` [Example 405, [7-(3,5-Difluoro-4-morpholin-4-ylmethyl-phenyl)-7H-pyrrolo[2,3-d]pyrimidin-2-yl]-[3-(3-methoxy-azetidin-1-ylmethyl)-4-methyl-phenyl]-amine], the IC50 at GST-JAK2(808-1132) was at most 3 nM; in assay [1], 3.2 nM.

Turning to `Fc1cc(-n2ccc3cnc(Nc4ccc([C@@H]5CNCCN5)cc4)nc32)cc(F)c1CN1CCOCC1` [Example 475, [7-(3,5-Difluoro-4-morpholin-4-ylmethyl-phenyl)-7H-pyrrolo[2,3-d]pyrimidin-2-yl]-((R)-4-piperazin-2-yl-phenyl)-amine], the IC50 at GST-JAK2(808-1132) is at most 3 nM; in assay [1], 5.3 nM.

As for `Cc1ccc(Nc2ncc3ccn(-c4cc(F)c(CN5CCOCC5)c(F)c4)c3n2)cc1C(=O)N1CCN(C)CC1` [Example 451, {5-[7-(3,5-Difluoro-4-morpholin-4-ylmethyl-phenyl)-7H-pyrrolo[2,3-d]pyrimidin-2-ylamino]-2-methyl-phenyl}-(4-methyl-piperazin-1-yl)-methanone], the values for the IC50 (on GST-JAK2(808-1132); in assay [1]) were 3.8 nM and 24 nM, respectively.

On to `Fc1cc(-n2ccc3cnc(Nc4ccnc(OCC5CCNCC5)c4)nc32)cc(F)c1CN1CCOCC1` [Example 392, [7-(3,5-Difluoro-4-morpholin-4-ylmethyl-phenyl)-7H-pyrrolo[2,3-d]pyrimidin-2-yl]-[2-(piperidin-4-ylmethoxy)-pyridin-4-yl]-amine], for which the results for the IC50 (at GST-JAK2(808-1132); in assay [1]) were at most 3 nM and 68 nM, respectively.

Take `Cc1ccc(Nc2ncc3ccn(-c4cc(F)c(CN5CCOCC5)c(F)c4)c3n2)cc1CN1CCC(N(C)C)C1` (racemic) [Example 434, [7-(3,5-Difluoro-4-morpholin-4-ylmethyl-phenyl)-7H-pyrrolo[2,3-d]pyrimidin-2-yl]-[3-(3-dimethylamino-pyrrolidin-1-ylmethyl)-4-methyl-phenyl]-amine]: the IC50 is at most 3 nM on GST-JAK2(808-1132) and 31.5 nM in assay [1].

In the case of `O=C(c1cc(Nc2ncc3ccn(-c4cc(F)c(CN5CCOCC5)c(F)c4)c3n2)ccn1)N1CCNCC1` [Example 390, {4-[7-(3,5-Difluoro-4-morpholin-4-ylmethyl-phenyl)-7H-pyrrolo[2,3-d]pyrimidin-2-ylamino]-pyridin-2-yl}-piperazin-1-yl-methanone], the results for the IC50 (at GST-JAK2(808-1132); in assay [1]) were 15 nM and 104 nM, respectively.

In the case of `OC1CN(Cc2ccc(Nc3ncc4ccn(-c5cc(F)c(CN6CCOCC6)c(F)c5)c4n3)cc2)C1` [Example 479, 1-{4-[7-(3,5-Difluoro-4-morpholin-4-ylmethyl-phenyl)-7H-pyrrolo[2,3-d]pyrimidin-2-ylamino]-benzyl}-azetidin-3-ol], the results for the IC50 (on GST-JAK2(808-1132); in assay [1]) were 3.5 nM and 15 nM, respectively.

As for `Cc1ccc(Nc2ncc3ccn(-c4ccc(S(=O)(=O)NC(C)(C)C)cc4)c3n2)cc1CN1C[C@@H](C)N[C@@H](C)C1` [Example 387, N-tert-Butyl-4-{2-[3-(cis-3,5-dimethyl-piperazin-1-ylmethyl)-4-methyl-phenylamino]-pyrrolo[2,3-d]pyrimidin-7-yl}-benzenesulfonamide], the figures for the IC50 (on GST-JAK2(808-1132); in assay [1]) were 9.6 nM and 45.5 nM, respectively.

As to `O=C1CNCCN1Cc1cc(Nc2ncc3ccn(-c4cc(F)c(CN5CCOCC5)c(F)c4)c3n2)ccn1` [Example 409, 1-{4-[7-(3,5-Difluoro-4-morpholin-4-ylmethyl-phenyl)-7H-pyrrolo[2,3-d]pyrimidin-2-ylamino]-pyridin-2-ylmethyl}-piperazin-2-one], the IC50 is at most 3 nM at GST-JAK2(808-1132) and 81.6 nM in assay [1].

For the molecule `C[C@@H]1CN(c2ccc(Nc3ncc4ccn(-c5cc(F)cc(F)c5)c4n3)cn2)C[C@H](C)N1` [Example 453, [7-(3,5-Difluoro-phenyl)-7H-pyrrolo[2,3-d]pyrimidin-2-yl]-[6-(cis-3,5-dimethyl-piperazin-1-yl)-pyridin-3-yl]-amine], the IC50 on GST-JAK2(808-1132) is 4.1 nM; in assay [1], 36 nM.

For `O=C1CN(c2ncc(Nc3ncc4ccn(-c5cc(F)c(CN6CCOCC6)c(F)c5)c4n3)cc2Cl)CCN1` [Example 491, 4-{3-Chloro-5-[7-(3,5-difluoro-4-morpholin-4-ylmethyl-phenyl)-7H-pyrrolo[2,3-d]pyrimidin-2-ylamino]-pyridin-2-yl}-piperazin-2-one], the IC50 at GST-JAK2(808-1132) was at most 3 nM; in assay [1], 15 nM.

As to `Cc1ccc(Nc2ncc3ccn(-c4cc(F)c(CN5CCS(=O)(=O)CC5)c(F)c4)c3n2)cc1CN1CCC(N(C)C)C1` (racemic) [Example 435, [3-(3-Dimethylamino-pyrrolidin-1-ylmethyl)-4-methyl-phenyl]-{7-[4-(1,1-dioxido-thiomorpholin-4-ylmethyl)-3,5-difluoro-phenyl]-7H-pyrrolo[2,3-d]pyrimidin-2-yl}-amine], the IC50 is at most 3 nM on GST-JAK2(808-1132) and 3.4 nM in assay [1].

As to `Cc1ccc(Nc2ncc3ccn(-c4ccc(S(=O)(=O)NC(C)(C)C)cc4)c3n2)cc1CN1CCN(C)CC1` [Example 353, N-tert-Butyl-4-{2-[4-methyl-3-(4-methyl-piperazin-1-ylmethyl)-phenylamino]-pyrrolo[2,3-d]pyrimidin-7-yl}-benzenesulfonamide], the values for the IC50 (at GST-JAK2(808-1132); in assay [1]) were 4.9 nM and 17 nM, respectively.

For the molecule `CC1(C)NCCN(c2ccc(Nc3ncc4ccn(-c5cc(F)c(CN6CCOCC6)c(F)c5)c4n3)cn2)C1=O` [Example 492, 1-{5-[7-(3,5-Difluoro-4-morpholin-4-ylmethyl-phenyl)-7H-pyrrolo[2,3-d]pyrimidin-2-ylamino]-pyridin-2-yl}-3,3-dimethyl-piperazin-2-one], the IC50 on GST-JAK2(808-1132) came to 2.2 nM; in assay [1], 55.5 nM.
